Consider one molecule from US9540348B2, “Imidazole-1-yl pyrimidine derivatives, or pharmacutically acceptable salt thereof, and pharmaceutic composition comprising the same as an active ingredient” (Industry-University Cooperation Foundation Hanyang …, priority 2015, dated 2017).

Assay type in all cases: biochemical
For assay [1], the target named is P38a/MAPK14 (Homo sapiens, UniProt Q16539). Description: Enzymatic activity (IC50) to kinases. The conditions noted are these: read-out: IC50 (Unit: nM) P38a/MAPK14.
Chain of P38a/MAPK14 (Q16539 whole entry): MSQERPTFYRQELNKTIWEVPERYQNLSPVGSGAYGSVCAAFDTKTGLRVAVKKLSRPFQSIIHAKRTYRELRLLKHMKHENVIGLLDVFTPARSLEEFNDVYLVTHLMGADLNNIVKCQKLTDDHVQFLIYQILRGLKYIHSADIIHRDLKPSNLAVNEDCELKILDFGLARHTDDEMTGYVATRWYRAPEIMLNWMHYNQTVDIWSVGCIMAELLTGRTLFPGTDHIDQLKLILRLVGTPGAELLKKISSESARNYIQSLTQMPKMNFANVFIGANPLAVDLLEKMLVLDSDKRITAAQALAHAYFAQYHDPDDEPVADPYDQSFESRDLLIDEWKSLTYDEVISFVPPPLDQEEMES
Assay [2] concerns the target FMS (Homo sapiens, UniProt P07333). Description: Kinase panel screening. Conditions: 10 μM concentration; read-out: Inhibition Rate (Unit: %) FMS. The method, then: (§1) To Compound 10c of Example 23, kinase panel screening was carried out to 32 kinds of kinases in 10 μM concentration and the results are listed in the following Table 2.
Assay [3] deals with ALK (Homo sapiens, UniProt Q9UM73). Nature of the assay: Kinase panel screening. Conditions: 10 μM concentration; read-out: Inhibition Rate (Unit: %) ALK. The method, then: as §1
Assay [4] concerns the target PLK1 (Homo sapiens, UniProt P53350). Description: Kinase panel screening. The conditions noted are these: 10 μM concentration; read-out: Inhibition Rate (Unit: %) PLK1. On the procedure:
as §1

Assay [5] deals with JAK3 (Homo sapiens, UniProt P52333). Description: Kinase panel screening. The conditions noted are these: 10 μM concentration; read-out: Inhibition Rate (Unit: %) JAK3. On the procedure: as §1
Assay [6] addresses AKT1 (Homo sapiens, UniProt P31749). Nature of the assay: Kinase panel screening. Conditions: 10 μM concentration; read-out: Inhibition Rate (Unit: %) AKT1. On the procedure:
as §1

Assay [7] has as its target BRAF (Homo sapiens, UniProt P15056). Description: Kinase panel screening. The conditions noted are these: 10 μM concentration. On the procedure:
as §1

The target in assay [8] is EGFR (Homo sapiens, UniProt P00533). Nature of the assay: Kinase panel screening. Conditions: 10 μM concentration; read-out: Inhibition Rate (Unit: %) EGFR. The method, then:
as §1

The target in assay [9] is FAK/PTK2 (Homo sapiens, UniProt Q05397). Description: Kinase panel screening. Conditions: 10 μM concentration; read-out: Inhibition Rate (Unit: %) FAK/PTK2. The method, then: as §1

Chain of BRAF (P15056 whole entry): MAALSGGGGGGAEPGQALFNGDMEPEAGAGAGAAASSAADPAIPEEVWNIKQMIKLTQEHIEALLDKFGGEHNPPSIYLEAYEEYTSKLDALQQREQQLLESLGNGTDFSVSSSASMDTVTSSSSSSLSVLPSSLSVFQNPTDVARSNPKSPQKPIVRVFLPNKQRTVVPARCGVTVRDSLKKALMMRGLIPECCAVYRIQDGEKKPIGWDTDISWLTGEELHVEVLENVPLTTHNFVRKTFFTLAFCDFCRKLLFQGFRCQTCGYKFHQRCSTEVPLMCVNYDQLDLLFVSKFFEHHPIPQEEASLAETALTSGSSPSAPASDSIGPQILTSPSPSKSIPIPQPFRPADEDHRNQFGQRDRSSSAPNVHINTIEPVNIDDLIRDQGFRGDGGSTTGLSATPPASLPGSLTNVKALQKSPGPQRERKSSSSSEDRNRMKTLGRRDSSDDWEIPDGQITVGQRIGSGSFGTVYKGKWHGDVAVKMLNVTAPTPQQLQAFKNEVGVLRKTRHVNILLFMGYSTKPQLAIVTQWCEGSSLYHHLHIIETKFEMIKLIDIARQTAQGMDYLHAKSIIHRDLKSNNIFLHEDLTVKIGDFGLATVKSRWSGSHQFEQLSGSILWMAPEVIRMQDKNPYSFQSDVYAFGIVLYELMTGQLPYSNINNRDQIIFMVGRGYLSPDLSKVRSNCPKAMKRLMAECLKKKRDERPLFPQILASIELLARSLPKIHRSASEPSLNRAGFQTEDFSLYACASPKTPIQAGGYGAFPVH
Chain of EGFR (P00533 25-1210, species assumed): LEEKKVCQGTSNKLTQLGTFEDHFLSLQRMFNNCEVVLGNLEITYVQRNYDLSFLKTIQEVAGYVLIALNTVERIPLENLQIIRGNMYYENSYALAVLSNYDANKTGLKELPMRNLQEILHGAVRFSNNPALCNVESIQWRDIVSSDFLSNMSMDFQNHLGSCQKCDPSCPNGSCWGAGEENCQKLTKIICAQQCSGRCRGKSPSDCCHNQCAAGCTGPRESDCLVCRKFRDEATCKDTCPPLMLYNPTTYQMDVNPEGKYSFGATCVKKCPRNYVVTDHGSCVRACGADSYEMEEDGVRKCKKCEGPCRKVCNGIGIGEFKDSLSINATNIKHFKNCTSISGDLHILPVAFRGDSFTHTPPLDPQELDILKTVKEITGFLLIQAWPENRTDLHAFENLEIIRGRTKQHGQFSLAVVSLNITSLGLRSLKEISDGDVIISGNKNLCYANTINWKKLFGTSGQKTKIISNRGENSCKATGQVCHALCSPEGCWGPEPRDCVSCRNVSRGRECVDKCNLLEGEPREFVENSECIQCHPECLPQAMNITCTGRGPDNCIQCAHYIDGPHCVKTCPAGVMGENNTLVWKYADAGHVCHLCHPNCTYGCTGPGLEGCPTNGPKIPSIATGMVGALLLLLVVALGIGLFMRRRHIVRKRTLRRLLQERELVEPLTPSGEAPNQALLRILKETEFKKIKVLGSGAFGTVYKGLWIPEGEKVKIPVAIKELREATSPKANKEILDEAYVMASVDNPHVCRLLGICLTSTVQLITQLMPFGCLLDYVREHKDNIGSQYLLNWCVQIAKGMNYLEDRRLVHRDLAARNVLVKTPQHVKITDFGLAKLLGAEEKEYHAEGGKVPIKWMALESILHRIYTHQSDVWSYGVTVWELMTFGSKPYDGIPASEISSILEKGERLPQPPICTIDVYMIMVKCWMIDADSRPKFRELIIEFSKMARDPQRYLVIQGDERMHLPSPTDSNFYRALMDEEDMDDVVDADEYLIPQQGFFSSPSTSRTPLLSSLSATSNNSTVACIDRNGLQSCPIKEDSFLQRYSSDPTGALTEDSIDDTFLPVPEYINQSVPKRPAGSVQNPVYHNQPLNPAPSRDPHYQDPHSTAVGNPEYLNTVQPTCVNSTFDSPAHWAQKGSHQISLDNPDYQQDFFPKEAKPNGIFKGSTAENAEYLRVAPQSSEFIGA
Chain of PLK1 (P53350 whole entry, species assumed): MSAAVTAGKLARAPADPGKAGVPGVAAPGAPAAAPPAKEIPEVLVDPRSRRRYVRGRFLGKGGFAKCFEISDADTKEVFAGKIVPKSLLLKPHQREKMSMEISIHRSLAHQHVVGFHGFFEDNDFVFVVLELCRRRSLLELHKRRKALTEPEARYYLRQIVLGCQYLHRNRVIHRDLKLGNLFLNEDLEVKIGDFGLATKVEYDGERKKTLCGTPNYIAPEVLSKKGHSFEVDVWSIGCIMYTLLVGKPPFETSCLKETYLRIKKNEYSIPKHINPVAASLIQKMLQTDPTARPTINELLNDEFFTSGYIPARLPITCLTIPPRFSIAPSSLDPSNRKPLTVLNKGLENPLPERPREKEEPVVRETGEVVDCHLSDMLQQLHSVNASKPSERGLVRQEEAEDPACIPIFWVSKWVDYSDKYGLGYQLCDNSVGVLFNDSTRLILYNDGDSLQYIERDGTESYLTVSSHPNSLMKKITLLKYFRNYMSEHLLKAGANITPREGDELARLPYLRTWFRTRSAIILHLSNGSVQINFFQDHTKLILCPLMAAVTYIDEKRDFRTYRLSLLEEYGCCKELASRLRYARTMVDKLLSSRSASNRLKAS
Chain of AKT1 (P31749 whole entry, species assumed): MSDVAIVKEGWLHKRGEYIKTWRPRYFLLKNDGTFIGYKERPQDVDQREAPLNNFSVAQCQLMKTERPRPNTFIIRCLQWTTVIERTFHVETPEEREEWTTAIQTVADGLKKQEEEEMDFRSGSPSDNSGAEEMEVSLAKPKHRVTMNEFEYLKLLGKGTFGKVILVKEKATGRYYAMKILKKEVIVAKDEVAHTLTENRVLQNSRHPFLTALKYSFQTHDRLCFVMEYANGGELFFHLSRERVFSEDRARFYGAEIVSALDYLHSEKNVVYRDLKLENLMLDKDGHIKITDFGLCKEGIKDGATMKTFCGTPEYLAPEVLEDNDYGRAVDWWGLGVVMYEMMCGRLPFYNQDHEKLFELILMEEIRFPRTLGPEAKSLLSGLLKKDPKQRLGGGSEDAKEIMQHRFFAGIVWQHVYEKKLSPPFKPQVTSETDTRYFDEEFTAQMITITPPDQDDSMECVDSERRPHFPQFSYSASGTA
Chain of FMS (P07333 20-972, species assumed): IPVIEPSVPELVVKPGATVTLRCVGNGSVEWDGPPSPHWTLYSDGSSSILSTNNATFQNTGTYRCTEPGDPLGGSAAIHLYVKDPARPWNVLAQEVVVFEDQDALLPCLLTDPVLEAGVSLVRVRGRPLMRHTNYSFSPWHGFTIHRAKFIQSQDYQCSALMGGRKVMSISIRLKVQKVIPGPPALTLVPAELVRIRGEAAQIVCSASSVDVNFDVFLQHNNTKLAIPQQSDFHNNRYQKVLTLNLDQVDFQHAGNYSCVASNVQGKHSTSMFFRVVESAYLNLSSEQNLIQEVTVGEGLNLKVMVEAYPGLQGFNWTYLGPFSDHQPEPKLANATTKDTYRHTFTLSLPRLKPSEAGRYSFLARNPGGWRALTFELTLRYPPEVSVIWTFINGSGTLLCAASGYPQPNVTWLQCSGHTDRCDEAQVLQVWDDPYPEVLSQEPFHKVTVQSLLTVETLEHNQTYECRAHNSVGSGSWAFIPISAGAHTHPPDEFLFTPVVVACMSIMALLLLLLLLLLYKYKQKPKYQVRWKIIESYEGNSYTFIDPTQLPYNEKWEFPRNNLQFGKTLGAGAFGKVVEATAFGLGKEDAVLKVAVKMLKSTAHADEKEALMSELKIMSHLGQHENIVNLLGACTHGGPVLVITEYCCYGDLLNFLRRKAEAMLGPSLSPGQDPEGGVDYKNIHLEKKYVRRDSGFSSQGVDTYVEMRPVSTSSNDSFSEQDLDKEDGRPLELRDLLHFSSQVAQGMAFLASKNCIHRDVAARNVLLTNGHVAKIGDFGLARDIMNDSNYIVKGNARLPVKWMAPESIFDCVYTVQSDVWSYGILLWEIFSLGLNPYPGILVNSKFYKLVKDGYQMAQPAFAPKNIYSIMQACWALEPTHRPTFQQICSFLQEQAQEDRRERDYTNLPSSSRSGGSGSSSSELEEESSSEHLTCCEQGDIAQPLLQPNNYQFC

For the molecule `C[C@H](O)CNc1nccc(-n2ccnc2Cc2cccc(NC(=O)Nc3ccc(C(F)(F)F)c(Cl)c3)c2)n1` [Example 23, (S)-1-(3-chloro-4-(trifluoromethyl)phenyl)-3-(3-((1-(2-((2-hydroxypropyl)amino)pyrimidin-4-yl)-1H-imidazol-2-yl)methyl)phenyl)urea], the IC50 in assay [1] came out at 571 nM. Also, the inhibition at 10 µM in assay [2] was 33.6%; in assay [3] it was 4.9%; in [4], 9.9%; in assay [5] it was 0%; in assay [6], 12.9%; in [7] (read-out: Inhibition Rate (Unit: %) BRAF) it was 99%. In addition, the inhibition at 10 µM in [8] is 0%; in assay [9] it was 1.2%. The “Inhibition Rate (Unit: %) BRAF” value in assay [7] (10 µM) turned out to be 99.9%.
